A word on the IC50: it is the concentration needed to halve the response being measured.

The structures appear in SMILES notation.

Experimental findings from patent publication US20080139607A1, “New Compounds” (ASTRAZENECA AB, priority 2006, published 2008) are described below.

Chain of Recombinant human PAI-1 (P05121 24-402): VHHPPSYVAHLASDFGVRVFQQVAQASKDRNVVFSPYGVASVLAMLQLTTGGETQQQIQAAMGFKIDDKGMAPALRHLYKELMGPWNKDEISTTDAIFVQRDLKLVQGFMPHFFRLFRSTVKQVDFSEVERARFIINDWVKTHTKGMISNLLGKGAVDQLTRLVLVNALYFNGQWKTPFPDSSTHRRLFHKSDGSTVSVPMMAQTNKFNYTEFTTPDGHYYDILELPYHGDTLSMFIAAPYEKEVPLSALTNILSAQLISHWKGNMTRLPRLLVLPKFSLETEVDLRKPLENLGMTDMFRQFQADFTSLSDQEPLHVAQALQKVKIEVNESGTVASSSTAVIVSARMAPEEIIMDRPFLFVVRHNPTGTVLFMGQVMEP

For this experiment, the target named is Recombinant human PAI-1 (Homo sapiens, UniProt P05121). Description: Plasma clot lysis assay for testing of PAI-1 inhibitors (clot lysis in platelet-poor plasma). It is filed as biochemical. The conditions noted are these: concentration at which clot lysis time is halved (pIC50=-log IC50); platelet-poor plasma 50%, PAI-1 10-13 ng/mL, t-PA 34 ng/mL, 37° C. How it is done:
Plasma Clot Lysis Assay for Testing of PAI-1 Inhibitors
CaCl2, p.a. Stock solution 0.1 M in water.
PAI-1 inhibitors dissolved in 100% DMSO.
Experimental Procedures—Clot Lysis in Platelet-Poor Plasma
Blood from healthy fat-fasting volunteers was collected into 0.13 M trisodium citrate, 9 parts blood to 1 part anticoagulant. The tubes were centrifuged at 2000×g, 20 min, at RT. The supernatant, ie, the platelet poor plasma was pooled, aliquoted and frozen at −85° C. until used. At the day of experiment the plasma was thawed in a water bath and temperated to 37° C. All other constituents, except t-PA, were prewarmed to 37° C. To each well on a microtiter plate, 25 μL CaCl2, 25 μL PAI-1 or 25 μL PAI-1 vehicle, 20 μL saline and 5 μL drug or 5 μL vehicle (100% DMSO) were added. Plasma was mixed with cold t-PA solution in the relation 4 parts plasma with 1 part t-PA, just before adding 125 μL of this mixture to each well. The final concentration was 12.5 mM for CaCl2, 10-13 ng/mL for PAI-1, 34 ng/mL for t-PA, and the compounds were tested at a final concentration range 0.1 nM to 0.25 mM. The final plasma concentration was 50%, as a result of the different additives. The plate, covered with a plastic lid, was placed in a Microplate reader (Molecular Devices, US) and gently shaken. The change in turbidity was immediately monitored as a change in absorbance at 405 nm at 37° C. Data points were collected at intervals of 2 min, during a period of 10 h. After finished reading, the absorbance data were transformed into files containing the time and absorbance values for each well. The clot longevity, ie, the time the clot exists, was determined as the time between clot formation, ie, positive Vmax, and clot lysis, ie, negative Vmax. The effect of the drugs, ie, shortening of the longevity for the clot, was expressed as the concentration at which a halving of the clot lysis time was reached, the IC50 (pIC50=−log IC50). Control clot lysis time, set to 100%, was determined in the presence of PAI-1, and the maximal effect, ie, the shortest lysis time that can be reached under defined conditions in this system, in the absence of PAI-1 was set to 0%.
Compounds having a pIC50 higher than 4 were considered as being active.
In the case of `CCCCCCCc1cc(=O)n2c(c1-c1ccc(F)c(F)c1)SC[C@H]2C(=O)O` [Example 1, (3R)-8-(3,4-Difluoro-phenyl)-7-heptyl-5-oxo-2,3-dihydro-5H-thiazolo[3,2-a]pyridine-3-carboxylic acid], the IC50 was 15.8 µM.

In the case of `CCCCCCCc1cc(=O)n2c(c1-c1ccc(F)c(F)c1)SC[C@H]2C(=O)NS(C)(=O)=O` [Example 2, (3R)—N-[8-(3,4-Difluoro-phenyl)-7-heptyl-5-oxo-2,3-dihydro-5H-thiazolo[3,2-a]pyridine-3-carbonyl]-methanesulfonamide], the half-inhibitory concentration (IC50) is 10 µM. With `CCCCCCCc1cc(=O)n([C@@H](C)C(=O)O)cc1-c1ccc(F)c(F)c1` [Example 3, (2S)-2-[5-(3,4-Difluoro-phenyl)-4-heptyl-2-oxo-2H-pyridin-1-yl]-propionic acid], the IC50 is 12.6 µM. For the compound `CCCCCCCc1cc(=O)n2c(c1-c1ccc(F)c(F)c1)SC[C@@H]2C(N)=O` [Example 4, (3S)-8-(3,4-Difluoro-phenyl)-7-heptyl-5-oxo-2,3-dihydro-5H-thiazolo[3,2-a]pyridine-3-carboxylic acid amide], the IC50 is 50.1 µM. Under `CCCCCCCc1cc(=O)n2c(c1-c1ccc(F)c(F)c1)SC[C@H]2c1nnn[nH]1` [Example 5, (3R)-8-(3,4-Difluoro-phenyl)-7-heptyl-3-(1H-tetrazol-5-yl)-2,3-dihydro-thiazolo[3,2-a]pyridin-5-one] stands 25.1 µM. Under `CCCCCCCc1c(-c2ccc(F)c(F)c2)c2n(c(=O)c1C(=O)O)[C@H](C(=O)OC)CS2` [Example 6, (3R)-8-(3,4-Difluoro-phenyl)-7-heptyl-5-oxo-2,3-dihydro-5H-thiazolo[3,2-a]pyridine-3,6-dicarboxylic acid 3-methyl ester] stands 20 µM; under `CCCCCCCc1cc(=O)n2c(c1-c1cccc(C(F)(F)F)c1)SC[C@H]2C(=O)O` [Example 7, (3R)-7-Heptyl-5-oxo-8-(3-trifluoromethyl-phenyl)-2,3-dihydro-5H-thiazolo[3,2-a]pyridine-3-carboxylic acid], 12.6 µM; under `CCCCCCCc1cc(=O)n2c(c1-c1cccc(C(F)(F)F)c1)SC[C@H]2C(=O)NS(=O)(=O)c1ccccc1` [Example 8, (3R)—N-[7-Heptyl-5-oxo-8-(3-trifluoromethyl-phenyl)-2,3-dihydro-5H-thiazolo[3,2-a]pyridine-3-carbonyl]-benzenesulfonamide], 2.51 µM. Turning to `CCCCc1cc(=O)n2c(c1-c1cccc(C(F)(F)F)c1)SC[C@H]2C(=O)O` [Example 9, (3R)-7-Butyl-5-oxo-8-(3-trifluoromethyl-phenyl)-2,3-dihydro-5H-thiazolo[3,2-a]pyridine-3-carboxylic acid], the IC50 is 39.8 µM.

`CCCCCCCc1c(-c2cccc(C(F)(F)F)c2)c2n(c(=O)c1[N+](=O)[O-])[C@H](C(=O)O)CS2` [Example 10, (3R)-7-Heptyl-6-nitro-5-oxo-8-(3-trifluoromethyl-phenyl)-2,3-dihydro-5H-thiazolo[3,2-a]pyridine-3-carboxylic acid]: the IC50 was 3.98 µM.

As for `CCCCCCCc1cc(=O)n2c(c1-c1ccc(F)c(F)c1)SC[C@@H]2C(=O)O` [Example 11, (3S)-8-(3,4-Difluoro-phenyl)-7-heptyl-5-oxo-2,3-dihydro-5H-thiazolo[3,2-a]pyridine-3-carboxylic acid], the IC50 was 10 µM.

In the case of `CCCCCCc1c(-c2cccc(C(F)(F)F)c2)c2n(c(=O)c1[N+](=O)[O-])[C@H](C(=O)O)CS2` [Example 12, (3R)-7-Hexyl-6-nitro-5-oxo-8-(3-trifluoromethyl-phenyl)-2,3-dihydro-5H-thiazolo[3,2-a]pyridine-3-carboxylic acid], the concentration for half-maximal inhibition (IC50) is 12.6 µM. Under `CC(C)CCc1c(-c2cccc(C(F)(F)F)c2)c2n(c(=O)c1[N+](=O)[O-])[C@H](C(=O)O)CS2` [Example 13, (3R)-7-(3-methylbutyl)-6-nitro-5-oxo-8-(3-trifluoromethyl-phenyl)-2,3-dihydro-5H-thiazolo[3,2-a]pyridine-3-carboxylic acid] stands 12.6 µM; under `CCCCCCc1c(-c2cccc(C(F)(F)F)c2)c2n(c(=O)c1N)[C@H](C(=O)O)CS2` [Example 14, (3R)-6-Amino-7-hexyl-5-oxo-8-(3-trifluoromethyl-phenyl)-2,3-dihydro-5H-thiazolo[3,2-a]pyridine-3-carboxylic acid], 12.6 µM. On to `CCCCc1c(-c2cccc(C(F)(F)F)c2)c2n(c(=O)c1[N+](=O)[O-])[C@H](C(=O)O)CS2` [Example 15, (3R)-7-Butyl-6-nitro-5-oxo-8-(3-trifluoromethyl-phenyl)-2,3-dihydro-5H-thiazolo[3,2-a]pyridine-3-carboxylic acid], for which the IC50 was 39.8 µM.

In the case of `CC(C)CCc1c(-c2cccc(C(F)(F)F)c2)c2n(c(=O)c1N)[C@H](C(=O)O)CS2` [Example 16, (3R)-6-Amino-7-(3-methyl-butyl)-5-oxo-8-(3-trifluoromethyl-phenyl)-2,3-dihydro-5H-thiazolo[3,2-a]pyridine-3-carboxylic acid], the half-inhibitory concentration (IC50) was 79.4 µM. For the compound `CCCCCCCc1c(-c2ccc(F)c(F)c2)c2n(c(=O)c1[N+](=O)[O-])[C@H](C(=O)O)CS2` [Example 17, (3R)-8-(3,4-Difluoro-phenyl)-7-heptyl-6-nitro-5-oxo-2,3-dihydro-5H-thiazolo[3,2-a]pyridine-3-carboxylic acid], the IC50 was 20 µM.

Consider `CCCCCCCCc1cc(=O)n2c(c1-c1cccc(C(F)(F)F)c1)SC[C@H]2C(=O)O` [Example 18, (3R)-7-octyl-5-oxo-8-[3-(trifluoromethyl)phenyl]-2,3-dihydro-5H-[1,3]thiazolo[3,2-a]pyridine-3-carboxylic acid], for which the IC50 is 3.98 µM. Consider `CCCCCCCc1cc(=O)n2c(c1-c1cccs1)SC[C@H]2C(=O)O` [Example 19, (3R)-7-heptyl-5-oxo-8-(2-thienyl)-2,3-dihydro-5H-[1,3]thiazolo[3,2-a]pyridine-3-carboxylic acid], for which the IC50 is 10 µM.

Regarding `CCCCCCCc1cc(=O)n2c(c1-c1c[nH]c3ccccc13)SC[C@H]2C(=O)O` [Example 20, (3R)-7-heptyl-8-(1H-indol-3-yl)-5-oxo-2,3-dihydro-5H-[1,3]thiazolo[3,2-a]pyridine-3-carboxylic acid], the IC50 is 12.6 µM.

Consider `O=C(O)[C@@H]1CSc2c(-c3ccccc3)c(CCCOc3ccc(Cl)cc3Cl)cc(=O)n21` [Example 21, (3R)-7-[3-(2,4-dichloro-phenoxy)-propyl]-5-oxo-8-phenyl-2,3-dihydro-51H-thiazolo[3,2-a]pyridine-3-carboxylic acid], for which the IC50 is 12.6 µM.

For the compound `CCCCCCCc1cc(=O)n2c(c1-c1ccc(F)c(F)c1)S[C@H](OC)[C@H]2C(=O)O` [Example 22, (2S,3R)-8-(3,4-difluorophenyl)-7-heptyl-2-methoxy-5-oxo-2,3-dihydro-5H-[1,3]thiazolo[3,2-a]pyridine-3-carboxylic acid], the IC50 is 10 µM. For the compound `CCCCCCCc1cc(=O)n2c(C(=O)O)csc2c1-c1ccc(F)c(F)c1` [Example 23, 8-(3,4-difluorophenyl)-7-heptyl-5-oxo-5H-[1,3]thiazolo[3,2-a]pyridine-3-carboxylic acid], the IC50 was 10 µM. As to `CCCCCCCc1cc(=O)n2c(c1-c1ccc(F)c(F)c1)S[C@H](c1ccccc1)[C@H]2C(=O)O` [Example 24, (2R,3R)-8-(3,4-difluorophenyl)-7-heptyl-5-oxo-2-phenyl-2,3-dihydro-5H-[1,3]thiazolo[3,2-a]pyridine-3-carboxylic acid], the IC50 was 5.01 µM. On to `CCCCCCCc1cc(=O)n2c(c1-c1ccc(F)c(F)c1)S[C@H](C)[C@H]2C(=O)O` [Example 25, (2R,3R)-8-(3,4-difluorophenyl)-7-heptyl-2-methyl-5-oxo-2,3-dihydro-5H-[1,3]thiazolo[3,2-a]pyridine-3-carboxylic acid], for which the IC50 is 3.98 µM.
